Laboratory results taken from patent US20150361503A1, “METHODS FOR SELECTING THERAPEUTICS FOR TREATMENT OF HER2+ CANCERS” (Merrimack Pharmaceuticals, Inc., priority 2014, published 2015).

Tested on: HER2+ cell lines
Test: In vitro cell growth assays: drug combination effects (CellTiter-Glo cell viability)
Assay type: cell-based
Protocol: Cells (BT474-M3, NCI-N87, NCI-N87-PIK3CA(wt), NCI-N87-PIK3CA(H1047R), NCI-N87-PIK3CA(E454K), COLO-678, KYSE-410, ZR75-1, MDA-MB-361 or MDA-MB-175-VII) are seeded at 700 cells per 384-well plate in 10% FBS cell growth medium and treated with the five drugs, separately or in combination, at […], with and without 5 nM HRG-β1 pre-stimulation (for four hours). Cell viability was determined 72 hours later with CellTiter-Glo® luminescent cell viability assay (Promega).
This panel included cells harboring PI3KCA-activating mutations (both natural and engineered), PTEN deletions, and KRAS-activating mutations, as well as PI3K and MAPK-wild type cells. To clarify and summarize the drug-response relationships, multivariate regression models were parameterized for each cell line, simulating % cell growth inhibition as linear combinations of the five input drug concentrations. Regression coefficients for each drug were grouped by mutational background and the presence or absence of heregulin stimulation, and average values computed (FIG. 4B).

SMILES	sensitivity of PI3K-mutant cells to drug-containing regimens (PI3K-mutant cells (MDA-MB-361, ZR-75-1, and NCI-N87-PIK3CA))	effect of HRG on sensitivity of cells to the drug (cell growth inhibition) (presence of 5 nM exogenous HRG, regardless of genetic background)	sensitivity of wild-type cells to drug-containing regimens (wild-type cells)
NC1(c2ccc(-c3nc4ccn5c(=O)[nH]nc5c4cc3-c3ccccc3)cc2)CCC1 [MK2206]	most sensitive		
CS(=O)(=O)CCNCc1ccc(-c2ccc3ncnc(Nc4ccc(OCc5cccc(F)c5)c(Cl)c4)c3c2)o1 [lapatinib]		desensitizes	most sensitive
